Results on three compounds are retold here after patent US9284320B2, “Ticagrelor adducts with divalent metal salts” (Lek Pharmaceuticals d.d., priority 2012, dated 2016).

For data set [1] the following is noted: general statement in the description; cited from earlier work.
A short description of data set [2]: Physical stability at room temperature (DSC), adduct compared to amorphous TCG. Type of data set: physicochemical. Here is the method: The so obtained Ia was left at room temperature in a closed vial to test physical stability. DSC analysis was performed after 21 days (FIG. 2) and after 31 days (FIG. 3).
DSC analysis of a sample was performed immediately (FIG. 4). Another sample of the so obtained Ia was left at room temperature to test physical stability.
TCG (0.52 g) was dissolved in 55 mL of aqueous ethanol (50 vol %) with the aid of ultrasonic irradiation. To the solution 33 mL water was poured at once and the obtained turbid mixture was frozen immediately in liquid nitrogen. The material was then lyophilized for 72 h at ˜0.8 mbar. DSC analysis of a sample was performed immediately (FIG. 6). Another sample of the so obtained amorphous TCG was left at room temperature to test physical stability.
Conditions for obtaining DSC thermograms: Thermograms were obtained with Mettler Toledo DSC822e differential scanning calorimeter. The sample (1-10 mg) was placed in an unsealed aluminium pan with a hole and heated at 10° C./min in the temperature range from 30° C. to 250° C.

The nature of data set [3]: Hygroscopicity observed on isolation of the adduct. Format: physicochemical. Conditions: on air, after filtration under nitrogen. On the procedure:
To a solution of TCG (0.30 g) in dry MeCN (4 mL) at 60° C. MgCl2 (60 mg) was added in one portion, and the resulting reaction mixture was stirred at 60° C. for 16 h.
To a solution of TCG (0.20 g) in dry MeCN (5 mL) at 50° C. MgBr2 (74 mg) was added in one portion, and the resulting reaction mixture was stirred at 50° C. for 15 min.

Turning to `CCCSc1nc(N[C@@H]2C[C@H]2c2ccc(F)c(F)c2)c2nnn([C@@H]3C[C@H](OCCO)[C@@H](O)[C@H]3O)c2n1` [Ticagrelor, 3-[7-[[(1R,2S)-2-(3,4-difluorophenyl)cyclopropyl]amino]-5-(propylthio)-3H-1,2,3-triazolo[4,5-d]pyrimidin-3-yl]-5-(2-hydroxyethoxy)-(1S,2S,3R,5S)-1,2-cyclopentanediol], in data set [1], the solubility in water result is listed as “low solubility in water”.
`CCCSc1nc(N[C@@H]2C[C@H]2c2ccc(F)c(F)c2)c2nnn([C@@H]3C[C@H](OCCO)[C@@H](O)[C@H]3O)c2n1` [amorphous basic ticagrelor]: in data set [2], the “chemical and physical stability (conversion of amorphous state to crystalline form)” value was “quickly converts to the more stable crystalline forms”.
Regarding `CCCSc1nc(N[C@@H]2C[C@H]2c2ccc(F)c(F)c2)c2nnn([C@@H]3C[C@H](OCCO)[C@@H](O)[C@H]3O)c2n1` [Ib], the hygroscopicity entry in data set [3] was “hygroscopic on air”.
